Experimental data: patent US20250230193A1, “CYCLIC COMPOUND HAVING SELECTIVE KRAS INHIBITORY EFFECT ON HRAS AND NRAS” (CHUGAI SEIYAKU KABUSHIKI KAISHA, priority 2022, published 2025)
Where a SMILES comes first, the peptide text is derived from it. Bridges are numbered along the chain shown (N, C = ends). [ ]: non-standard residue; d: D form. The star is where a group is joined. hPhe(3-Cl-4-CF3) = N[C@@H](CCc1ccc(C(F)(F)F)c(Cl)c1)C(=O)O; NPrPhe(4-CF3) = CCCN[C@@H](Cc1ccc(C(F)(F)F)cc1)C(=O)O; NMeGly(cPent) = CN[C@H](C(=O)O)C1CCCC1; Pro(4,4-F2) = O=C(O)[C@@H]1CC(F)(F)CN1; Hyp = O=C(O)[C@@H]1C[C@@H](O)CN1; NMeD = CN[C@@H](CC(=O)O)C(=O)O; NMeL = CN[C@@H](CC(C)C)C(=O)O; Morpholide = C1CN(*)CCO1; Ac5c = NC1(C(=O)O)CCCC1; Aze = O=C(O)[C@@H]1CCN1; Ac4c = NC1(C(=O)O)CCC1; NEtG = CCNCC(=O)O; Sar = CNCC(=O)O

Tests used:
[1] = target: GDP-bound NRAS wild-type protein (Homo sapiens, UniProt P01111); assay: Binding to NRAS by surface plasmon resonance (SPR), Single Cycle Kinetics; details: KD ratio NRAS/KRAS, SPR
[2] = target: GDP-bound HRAS wild-type protein (Homo sapiens, UniProt P01112); assay: Binding to HRAS by surface plasmon resonance (SPR), Single Cycle Kinetics; details: KD ratio HRAS/KRAS, SPR
GDP-bound HRAS wild-type protein, sequence (P01112 whole entry): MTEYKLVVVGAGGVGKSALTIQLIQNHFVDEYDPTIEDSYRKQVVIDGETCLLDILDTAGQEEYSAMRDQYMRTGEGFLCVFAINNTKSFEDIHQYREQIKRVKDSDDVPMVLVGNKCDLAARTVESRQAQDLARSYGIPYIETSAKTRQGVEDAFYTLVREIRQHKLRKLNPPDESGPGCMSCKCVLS

GDP-bound NRAS wild-type protein, sequence (P01111 whole entry): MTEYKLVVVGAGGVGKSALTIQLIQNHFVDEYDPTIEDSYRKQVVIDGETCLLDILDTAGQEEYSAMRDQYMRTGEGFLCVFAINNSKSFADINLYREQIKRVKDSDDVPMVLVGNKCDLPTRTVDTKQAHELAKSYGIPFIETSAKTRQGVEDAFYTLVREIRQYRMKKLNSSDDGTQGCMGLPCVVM

| Structure (SMILES) | NRAS/KRAS (ratio of KD for GDP-bound NRAS wild-type to KD for KRAS) [1] | HRAS/KRAS (ratio of KD for GDP-bound HRAS wild-type to KD for KRAS) [2] |
| --- | --- | --- |
| CCCN1C(=O)CN(C)C(=O)CNC(=O)[C@H]([C@@H](C)CC)NC(=O)[C@H](CC(C)C)N(C)C(=O)C[C@@H](C(=O)N2CCOCC2)N(C)C(=O)[C@H](C2CCCC2)N(C)C(=O)C2(CCC2)NC(=O)[C@@H]2C[C@@H](OCC)CN2C(=O)[C@H](CCc2ccc(C(F)(F)F)c(Cl)c2)NC(=O)CN(C)C(=O)[C@@H]1Cc1ccc(C(F)(F)F)cc1 [PP0397] ([NMeL]IG[Sar][NPrPhe(4-CF3)][Sar][hPhe(3-Cl-4-CF3)][Hyp](Et)[Ac4c][NMeGly(cPent)][NMeD]-Morpholide; lactam N-11) | C (A compound having a KD ratio of 0.1 or more and less than 3 is denoted as C) | C (A compound having a KD ratio of 0.1 or more and less than 3 is denoted as C) |
| CCCN1C(=O)CN(C)C(=O)CN(CC)C(=O)[C@H]([C@@H](C)CC)NC(=O)[C@H](CC(C)C)N(C)C(=O)C[C@@H](C(=O)N2CCOCC2)N(C)C(=O)[C@H](C2CCCC2)N(C)C(=O)C2(CCC2)NC(=O)[C@@H]2CCCN2C(=O)[C@H](CCc2ccc(C(F)(F)F)c(Cl)c2)NC(=O)CN(C)C(=O)[C@@H]1Cc1ccc(C(F)(F)F)cc1 [PP0398] ([NMeL]I[NEtG][Sar][NPrPhe(4-CF3)][Sar][hPhe(3-Cl-4-CF3)]P[Ac4c][NMeGly(cPent)][NMeD]-Morpholide; lactam N-11) | B (a compound having 3 or more and less than 10 is denoted as B) | C (A compound having a KD ratio of 0.1 or more and less than 3 is denoted as C) |
| CCCN1C(=O)CN(C)C(=O)CN(CC)C(=O)[C@H]([C@@H](C)CC)NC(=O)[C@H](CC(C)C)N(C)C(=O)C[C@@H](C(=O)N2CCOCC2)N(C)C(=O)[C@H](C2CCCC2)N(C)C(=O)C2(CCCC2)NC(=O)[C@@H]2CC(F)(F)CN2C(=O)[C@H](CCc2ccc(C(F)(F)F)c(Cl)c2)NC(=O)CN(C)C(=O)[C@@H]1Cc1ccc(C(F)(F)F)cc1 [PP0399] ([NMeL]I[NEtG][Sar][NPrPhe(4-CF3)][Sar][hPhe(3-Cl-4-CF3)][Pro(4,4-F2)][Ac5c][NMeGly(cPent)][NMeD]-Morpholide; lactam N-11) | B (a compound having 3 or more and less than 10 is denoted as B) | C (A compound having a KD ratio of 0.1 or more and less than 3 is denoted as C) |
| CCCN1C(=O)CN(C)C(=O)CN(CC)C(=O)[C@H]([C@@H](C)CC)NC(=O)[C@H](CC(C)C)N(C)C(=O)C[C@@H](C(=O)N2CCOCC2)N(C)C(=O)[C@H](C2CCCC2)N(C)C(=O)C2(CCC2)NC(=O)[C@@H]2CC(F)(F)CN2C(=O)[C@H](CCc2ccc(C(F)(F)F)c(Cl)c2)NC(=O)CN(C)C(=O)[C@@H]1Cc1ccc(C(F)(F)F)cc1 [PP0400] ([NMeL]I[NEtG][Sar][NPrPhe(4-CF3)][Sar][hPhe(3-Cl-4-CF3)][Pro(4,4-F2)][Ac4c][NMeGly(cPent)][NMeD]-Morpholide; lactam N-11) | B (a compound having 3 or more and less than 10 is denoted as B) | B (a compound having 3 or more and less than 10 is denoted as B) |
| CCCN1C(=O)CN(C)C(=O)CN(CC)C(=O)[C@H]([C@@H](C)CC)NC(=O)[C@H](CC(C)C)N(C)C(=O)C[C@@H](C(=O)N2CCOCC2)N(C)C(=O)[C@H](C2CCCC2)N(C)C(=O)C2(CCC2)NC(=O)[C@@H]2C[C@@H](OCC)CN2C(=O)[C@H](CCc2ccc(C(F)(F)F)c(Cl)c2)NC(=O)CN(C)C(=O)[C@@H]1Cc1ccc(C(F)(F)F)cc1 [PP0401] ([NMeL]I[NEtG][Sar][NPrPhe(4-CF3)][Sar][hPhe(3-Cl-4-CF3)][Hyp](Et)[Ac4c][NMeGly(cPent)][NMeD]-Morpholide; lactam N-11) | B (a compound having 3 or more and less than 10 is denoted as B) | B (a compound having 3 or more and less than 10 is denoted as B) |
| CCCN1C(=O)CN(C)C(=O)[C@@H]2CCN2C(=O)[C@H]([C@@H](C)CC)NC(=O)[C@H](CC(C)C)N(C)C(=O)C[C@@H](C(=O)N2CCOCC2)N(C)C(=O)[C@H](C2CCCC2)N(C)C(=O)C2(CCC2)NC(=O)[C@@H]2CCCN2C(=O)[C@H](CCc2ccc(C(F)(F)F)c(Cl)c2)NC(=O)CN(C)C(=O)[C@@H]1Cc1ccc(C(F)(F)F)cc1 [PP0402] ([NMeL]I[Aze][Sar][NPrPhe(4-CF3)][Sar][hPhe(3-Cl-4-CF3)]P[Ac4c][NMeGly(cPent)][NMeD]-Morpholide; lactam N-11) | B (a compound having 3 or more and less than 10 is denoted as B) | C (A compound having a KD ratio of 0.1 or more and less than 3 is denoted as C) |
| CCCN1C(=O)CN(C)C(=O)[C@@H]2CCN2C(=O)[C@H]([C@@H](C)CC)NC(=O)[C@H](CC(C)C)N(C)C(=O)C[C@@H](C(=O)N2CCOCC2)N(C)C(=O)[C@H](C2CCCC2)N(C)C(=O)C2(CCCC2)NC(=O)[C@@H]2CC(F)(F)CN2C(=O)[C@H](CCc2ccc(C(F)(F)F)c(Cl)c2)NC(=O)CN(C)C(=O)[C@@H]1Cc1ccc(C(F)(F)F)cc1 [PP0403] ([NMeL]I[Aze][Sar][NPrPhe(4-CF3)][Sar][hPhe(3-Cl-4-CF3)][Pro(4,4-F2)][Ac5c][NMeGly(cPent)][NMeD]-Morpholide; lactam N-11) | B (a compound having 3 or more and less than 10 is denoted as B) | B (a compound having 3 or more and less than 10 is denoted as B) |
| CCCN1C(=O)CN(C)C(=O)[C@@H]2CCN2C(=O)[C@H]([C@@H](C)CC)NC(=O)[C@H](CC(C)C)N(C)C(=O)C[C@@H](C(=O)N2CCOCC2)N(C)C(=O)[C@H](C2CCCC2)N(C)C(=O)C2(CCC2)NC(=O)[C@@H]2CC(F)(F)CN2C(=O)[C@H](CCc2ccc(C(F)(F)F)c(Cl)c2)NC(=O)CN(C)C(=O)[C@@H]1Cc1ccc(C(F)(F)F)cc1 [PP0404] ([NMeL]I[Aze][Sar][NPrPhe(4-CF3)][Sar][hPhe(3-Cl-4-CF3)][Pro(4,4-F2)][Ac4c][NMeGly(cPent)][NMeD]-Morpholide; lactam N-11) | B (a compound having 3 or more and less than 10 is denoted as B) | C (A compound having a KD ratio of 0.1 or more and less than 3 is denoted as C) |
| CCCN1C(=O)CN(C)C(=O)[C@@H]2CCN2C(=O)[C@H]([C@@H](C)CC)NC(=O)[C@H](CC(C)C)N(C)C(=O)C[C@@H](C(=O)N2CCOCC2)N(C)C(=O)[C@H](C2CCCC2)N(C)C(=O)C2(CCC2)NC(=O)[C@@H]2C[C@@H](OCC)CN2C(=O)[C@H](CCc2ccc(C(F)(F)F)c(Cl)c2)NC(=O)CN(C)C(=O)[C@@H]1Cc1ccc(C(F)(F)F)cc1 [PP0405] ([NMeL]I[Aze][Sar][NPrPhe(4-CF3)][Sar][hPhe(3-Cl-4-CF3)][Hyp](Et)[Ac4c][NMeGly(cPent)][NMeD]-Morpholide; lactam N-11) | B (a compound having 3 or more and less than 10 is denoted as B) | C (A compound having a KD ratio of 0.1 or more and less than 3 is denoted as C) |
